Experimental data reported in patent publication US20260092071A1, “COMPOUNDS AND COMPOSITIONS AS SMARCA2/4 DEGRADERS AND USES THEREOF” (REGENTS OF THE UNIVERSITY OF MICHIGAN, priority 2022, published 2026).
Read-outs that look alike come from different tables or passages of the source.

Legend:
SMARCA4 = SMARCA4 (Homo sapiens, UniProt P51532); experiment: HiBiT assay for protein degradation, Hela SMARCA4-HiBiT cells (A series); format: cell-based; parameters: fuse HiBiT to the carboxy terminus of SMARCA2 (Promega CS302365) or SMARCA4 (Promega CS3023225); host or cells: HeLa (CRISPR/Cas9 HiBiT knock-in); conditions: for DC50: read-out: SMARC A4 Hela HiBit DC50; for Dmax: read-out: SMARC A4 Hela HiBit Dmax(%)
Experimental: Hela cells were genetically modified via CRISPR/Cas9 to fuse HiBiT to the carboxy terminus of SMARCA2 (Promega CS302365) or SMARCA4 (Promega CS3023225). Cells were cultured in DMEM containing 10% FBS and 1% (Vol:Vol) penicillin-streptomycin. […] At the end of experiment, levels of SMARCA2 or SMARCA4 expression were assessed with Nano-Glo® HiBiT Lytic Detection Assay (Promega N3050). IC50 was obtained using the GraphPad Prism data analysis software.

SMARCA2 = SMARCA2 (Homo sapiens, UniProt P51531); experiment: HiBiT assay for protein degradation, Hela SMARCA2-HiBiT cells (A series); format: cell-based; parameters: Hela cells were genetically modified via CRISPR/Cas9 to fuse HiBiT to the carboxy terminus of SMARCA2; host or cells: HeLa (CRISPR/Cas9 HiBiT knock-in); conditions: for DC50: read-out: SMARC A2 Hela HiBit DC50; for Dmax: read-out: SMARC A2 Hela HiBit Dmax (%);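 as to SMARC A2 Hela HiBit Dmax (%): 24 h compound treatment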
Procedure, shortened: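 HeLa cells engineered by CRISPR/Cas9 to carry a HiBiT tag fused to the C-terminus of SMARCA2 (Promega CS302365) were grown in DMEM supplemented with FBS and penicillin-streptomycin. After treatment, remaining SMARCA2 protein was quantified with the Nano-Glo® HiBiT Lytic Detection Assay (Promega N3050), and curves were fitted in GraphPad Prism.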

[1] = Hela SMARCA4-HiBiT cells, 24 hours treatment
[2] = Hela SMARCA2-HiBiT cells, 24 hours treatment

Chain of SMARCA4 (P51532 whole entry): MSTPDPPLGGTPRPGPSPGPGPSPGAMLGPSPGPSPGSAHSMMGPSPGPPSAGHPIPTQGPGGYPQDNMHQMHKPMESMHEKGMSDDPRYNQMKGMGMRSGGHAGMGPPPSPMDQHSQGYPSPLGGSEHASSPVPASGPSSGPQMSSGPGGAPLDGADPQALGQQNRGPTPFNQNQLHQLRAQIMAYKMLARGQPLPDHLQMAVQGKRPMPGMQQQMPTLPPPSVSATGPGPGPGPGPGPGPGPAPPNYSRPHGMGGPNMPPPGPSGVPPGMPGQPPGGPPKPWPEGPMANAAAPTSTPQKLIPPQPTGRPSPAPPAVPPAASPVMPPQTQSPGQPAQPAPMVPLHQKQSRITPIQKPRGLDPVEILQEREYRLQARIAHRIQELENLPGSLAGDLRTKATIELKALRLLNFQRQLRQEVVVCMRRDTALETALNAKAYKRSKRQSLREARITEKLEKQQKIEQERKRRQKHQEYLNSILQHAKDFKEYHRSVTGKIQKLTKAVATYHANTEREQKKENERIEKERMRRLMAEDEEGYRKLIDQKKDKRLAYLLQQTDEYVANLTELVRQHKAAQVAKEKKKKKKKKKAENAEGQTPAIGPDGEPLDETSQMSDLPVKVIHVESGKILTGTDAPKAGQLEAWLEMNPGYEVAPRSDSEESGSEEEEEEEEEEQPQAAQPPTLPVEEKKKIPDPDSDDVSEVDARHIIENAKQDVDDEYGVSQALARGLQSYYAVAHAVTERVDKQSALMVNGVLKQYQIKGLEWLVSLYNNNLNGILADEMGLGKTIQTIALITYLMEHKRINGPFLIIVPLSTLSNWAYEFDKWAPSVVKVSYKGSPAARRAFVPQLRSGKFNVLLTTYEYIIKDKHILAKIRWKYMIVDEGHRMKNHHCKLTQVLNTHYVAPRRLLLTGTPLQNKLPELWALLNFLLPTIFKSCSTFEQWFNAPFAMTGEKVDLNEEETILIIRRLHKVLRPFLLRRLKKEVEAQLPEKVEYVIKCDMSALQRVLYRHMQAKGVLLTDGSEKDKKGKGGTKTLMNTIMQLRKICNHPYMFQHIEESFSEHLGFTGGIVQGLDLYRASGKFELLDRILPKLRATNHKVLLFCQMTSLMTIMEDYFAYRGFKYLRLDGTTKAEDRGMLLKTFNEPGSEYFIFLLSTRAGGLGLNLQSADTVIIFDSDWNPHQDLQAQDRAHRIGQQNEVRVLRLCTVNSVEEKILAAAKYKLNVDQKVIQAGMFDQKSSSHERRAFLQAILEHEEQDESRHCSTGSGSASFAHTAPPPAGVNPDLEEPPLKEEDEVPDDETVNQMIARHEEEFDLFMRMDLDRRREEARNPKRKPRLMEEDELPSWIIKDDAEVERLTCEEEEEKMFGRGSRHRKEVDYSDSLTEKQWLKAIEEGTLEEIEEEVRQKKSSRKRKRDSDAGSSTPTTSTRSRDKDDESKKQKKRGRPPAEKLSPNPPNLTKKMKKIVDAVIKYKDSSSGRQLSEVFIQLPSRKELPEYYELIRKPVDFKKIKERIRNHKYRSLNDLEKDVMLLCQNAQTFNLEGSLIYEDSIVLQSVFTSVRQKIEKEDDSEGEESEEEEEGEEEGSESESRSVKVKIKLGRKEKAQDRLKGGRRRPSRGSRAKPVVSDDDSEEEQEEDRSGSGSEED
Chain of SMARCA2 (P51531 whole entry, the tested form may be a part): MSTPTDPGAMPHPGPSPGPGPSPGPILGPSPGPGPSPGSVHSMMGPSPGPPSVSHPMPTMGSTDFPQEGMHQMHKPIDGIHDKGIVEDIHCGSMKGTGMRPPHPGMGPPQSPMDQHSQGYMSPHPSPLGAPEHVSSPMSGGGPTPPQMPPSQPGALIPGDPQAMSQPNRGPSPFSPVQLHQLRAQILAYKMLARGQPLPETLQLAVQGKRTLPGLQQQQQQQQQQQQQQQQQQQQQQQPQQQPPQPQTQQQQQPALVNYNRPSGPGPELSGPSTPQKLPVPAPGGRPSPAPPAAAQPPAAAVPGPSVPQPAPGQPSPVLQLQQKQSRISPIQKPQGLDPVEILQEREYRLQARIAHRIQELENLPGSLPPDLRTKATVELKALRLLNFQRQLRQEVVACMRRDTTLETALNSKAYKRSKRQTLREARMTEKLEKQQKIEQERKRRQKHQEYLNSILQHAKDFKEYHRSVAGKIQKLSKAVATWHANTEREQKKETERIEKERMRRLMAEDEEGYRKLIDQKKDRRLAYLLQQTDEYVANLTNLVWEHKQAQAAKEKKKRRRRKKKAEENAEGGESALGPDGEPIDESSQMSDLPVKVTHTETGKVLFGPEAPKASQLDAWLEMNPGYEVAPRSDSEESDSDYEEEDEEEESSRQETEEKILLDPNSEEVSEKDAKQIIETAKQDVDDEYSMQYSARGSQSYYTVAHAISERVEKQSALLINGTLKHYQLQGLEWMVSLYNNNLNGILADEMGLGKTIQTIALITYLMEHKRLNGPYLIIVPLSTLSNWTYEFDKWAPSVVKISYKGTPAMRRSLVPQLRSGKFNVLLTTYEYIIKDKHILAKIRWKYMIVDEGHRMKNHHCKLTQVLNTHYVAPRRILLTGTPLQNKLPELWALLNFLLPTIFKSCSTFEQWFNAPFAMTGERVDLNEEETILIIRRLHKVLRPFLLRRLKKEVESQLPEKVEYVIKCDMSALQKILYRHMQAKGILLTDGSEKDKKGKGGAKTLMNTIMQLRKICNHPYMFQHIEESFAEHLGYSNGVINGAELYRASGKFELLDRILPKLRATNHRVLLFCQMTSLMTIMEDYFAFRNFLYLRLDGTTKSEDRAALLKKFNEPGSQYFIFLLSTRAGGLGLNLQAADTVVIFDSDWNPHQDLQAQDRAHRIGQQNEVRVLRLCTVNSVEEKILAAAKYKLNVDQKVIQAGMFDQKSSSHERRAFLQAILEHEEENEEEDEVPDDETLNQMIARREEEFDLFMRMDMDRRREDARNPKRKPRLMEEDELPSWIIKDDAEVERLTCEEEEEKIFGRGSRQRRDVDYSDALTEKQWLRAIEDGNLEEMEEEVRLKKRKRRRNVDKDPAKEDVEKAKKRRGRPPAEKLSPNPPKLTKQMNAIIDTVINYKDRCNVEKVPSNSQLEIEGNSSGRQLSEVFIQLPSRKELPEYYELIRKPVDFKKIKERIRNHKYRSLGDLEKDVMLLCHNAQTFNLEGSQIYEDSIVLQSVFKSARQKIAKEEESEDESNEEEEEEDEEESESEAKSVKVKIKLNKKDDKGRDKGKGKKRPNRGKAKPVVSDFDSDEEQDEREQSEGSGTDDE

| Compound | SMARC A4 Hela HiBit Dmax(%) (SMARCA4; [1]) | DC50 (SMARCA4) | SMARC A2 Hela HiBit Dmax (%) (SMARCA2; [2]) | DC50 (SMARCA2) | DC50 (SMARCA4; [1]) | Dmax (SMARCA4; [1]) | DC50 (SMARCA2; [2]) | Dmax (SMARCA2; [2]) | Dmax (SMARCA2; HeLa) |
| --- | --- | --- | --- | --- | --- | --- | --- | --- | --- |
| Cc1ncsc1-c1ccc([C@H](CN2CCOCC2)NC(=O)[C@@H]2C[C@@H](O)CN2C(=O)[C@@H](NC(=O)C23CCC(CN4CCC(c5ccc6c(c5)-n5c(nc(=O)c7c(Br)cccc75)C65CCCCC5)CC4)(CC2)C3)C(C)(C)C)cc1 [Compound A24, (2S,4R)-1-((S)-2-(4-((4-(4′-bromo-5′-oxo-5′H-spiro[cyclohexane-1,7′-indolo[1,2-a]quinazolin]-10′-yl)piperidin-1-yl)methyl)bicyclo[2.2.1]heptane-1-carboxamido)-3,3-dimethylbutanoyl)-4-hydroxy-N—((R)-1-(4-(4-methylthiazol-5-yl)phenyl)-2-morpholinoethyl)pyrrolidine-2-carboxamide] | B (B (70-90% degradation)) | 100 to 500 nM | A (A (>90% degradation)) | < 100 nM |  |  |  |  |  |
| CC(C)(C)[C@H](NC(=O)C1(F)CC1)C(=O)N1C[C@H](O)C[C@H]1C(=O)N[C@@H](CCCCCN1CCC(c2ccc3c(c2)C2(CCCCC2)c2nc(=O)c4c(Br)cccc4n2-3)CC1)c1ccc(Cl)cc1 [Compound A25, (2S,4R)—N—((S)-6-(4-(4′-bromo-5′-oxo-5′H-spiro[cyclohexane-1,7-indolo[1,2-a]quinazolin]-9′-yl)piperidin-1-yl)-1-(4-chlorophenyl)hexyl)-1-((S)-2-(1-fluorocyclopropane-1-carboxamido)-3,3-dimethylbutanoyl)-4-hydroxypyrrolidine-2-carboxamide] |  |  |  |  | > 1000 nM | < 50% | > 1000 nM | < 50% |  |
| CC(C)(C)[C@H](NC(=O)C1(F)CC1)C(=O)N1C[C@H](O)C[C@H]1C(=O)N[C@@H](CCCCCN1CCC(c2ccc3c(c2)-n2c(nc(=O)c4c(Br)cccc42)C32CCCCC2)CC1)c1ccc(Cl)cc1 [Compound A26, (2S,4R)—N—((S)-6-(4-(4′-bromo-5′-oxo-5′H-spiro[cyclohexane-1,7′-indolo[1,2-a]quinazolin]-10′-yl)piperidin-1-yl)-1-(4-chlorophenyl)hexyl)-1-((S)-2-(1-fluorocyclopropane-1-carboxamido)-3,3-dimethylbutanoyl)-4-hydroxypyrrolidine-2-carboxamide] | D (D (<50% degradation)) | > 1000 nM | D (D (<50% degradation)) | > 1000 nM |  |  |  |  |  |
| Cc1ncsc1-c1ccc([C@H](C)NC(=O)[C@@H]2C[C@@H](O)CN2C(=O)[C@@H](NC(=O)C23CCC(CN4CCC(c5ccc6c(c5)C5(CCCCC5)c5nc(=O)c7c(Br)cccc7n5-6)CC4)(CC2)CC3)C(C)(C)C)cc1 [Compound A27, (2S,4R)-1-((S)-2-(4-((4-(4′-bromo-5′-oxo-5′H-spiro[cyclohexane-1,7′-indolo[1,2-a]quinazolin]-9′-yl)piperidin-1-yl)methyl)bicyclo[2.2.2]octane-1-carboxamido)-3,3-dimethylbutanoyl)-4-hydroxy-N—((S)-1-(4-(4-methylthiazol-5-yl)phenyl)ethyl)pyrrolidine-2-carboxamide] |  | 501 to 1000 nM |  | < 100 nM |  | 50 to 69% |  |  | 70 to 90% |
| Cc1ncsc1-c1ccc([C@H](CN2CCOCC2)NC(=O)[C@@H]2C[C@@H](O)CN2C(=O)[C@@H](NC(=O)C23CCC(CN4CCC(c5ccc6c(c5)C5(CCCCC5)c5nc(=O)c7c(Br)cccc7n5-6)CC4)(CC2)CC3)C(C)(C)C)cc1 [Compound A28, (2S,4R)-1-((S)-2-(4-((4-(4′-bromo-5′-oxo-5′H-spiro[cyclohexane-1,7′-indolo[1,2-a]quinazolin]-9′-yl)piperidin-1-yl)methyl)bicyclo[2.2.2]octane-1-carboxamido)-3,3-dimethylbutanoyl)-4-hydroxy-N—((R)-1-(4-(4-methylthiazol-5-yl)phenyl)-2-morpholinoethyl)pyrrolidine-2-carboxamide] | C (C (50-69% degradation)) | 100 to 500 nM | B (B (70-90% degradation)) | < 100 nM |  |  |  |  |  |
| Cc1ncsc1-c1ccc([C@H](C)NC(=O)[C@@H]2C[C@@H](O)CN2C(=O)[C@@H](NC(=O)C23CCC(CN4CCC(c5ccc6c(c5)-n5c(nc(=O)c7c(Br)cccc75)C65CCCCC5)CC4)(CC2)CC3)C(C)(C)C)cc1 [Compound A29] |  | > 1000 nM |  | < 100 nM |  | < 50% |  |  | 70 to 90% |
| Cc1ncsc1-c1ccc([C@H](CN2CCOCC2)NC(=O)[C@@H]2C[C@@H](O)CN2C(=O)[C@@H](NC(=O)C23CCC(CN4CCC(c5ccc6c(c5)-n5c(nc(=O)c7c(Br)cccc75)C65CCCCC5)CC4)(CC2)CC3)C(C)(C)C)cc1 [Compound A30, (2S,4R)-1-((S)-2-(4-((4-(4′-bromo-5′-oxo-5′H-spiro[cyclohexane-1,7′-indolo[1,2-a]quinazolin]-10′-yl)piperidin-1-yl)methyl)bicyclo[2.2.2]octane-1-carboxamido)-3,3-dimethylbutanoyl)-4-hydroxy-N—((R)-1-(4-(4-methylthiazol-5-yl)phenyl)-2-morpholinoethyl)pyrrolidine-2-carboxamide] | D (D (<50% degradation)) | > 1000 nM | B (B (70-90% degradation)) | < 100 nM |  |  |  |  |  |
| Cc1ncsc1-c1ccc([C@H](C)NC(=O)[C@@H]2C[C@@H](O)CN2C(=O)[C@@H](n2cc([C@H]3CC[C@H](CN4CCC(c5ncc6c(n5)-n5c(nc(=O)c7c(Br)cccc75)C65CCCCC5)CC4)CC3)nn2)C(C)(C)C)cc1 [Compound A31, (2S,4R)-1-((S)-2-(4-((1r,4S)-4-((4-(4′-bromo-5′-oxo-5′H-spiro[cyclohexane-1,7′-pyrimido[5′,4′: 4,5]pyrrolo[1,2-a]quinazolin]-10′-yl)piperidin-1-yl)methyl)cyclohexyl)-1H-1,2,3-triazol-1-yl)-3,3-dimethylbutanoyl)-4-hydroxy-N—((S)-1-(4-(4-methylthiazol-5-yl)phenyl)ethyl)pyrrolidine-2-carboxamide] |  |  |  |  | > 1000 nM | 50 to 69% | > 1000 nM | < 50% |  |
| Cc1ncsc1-c1ccc([C@H](CN2CCOCC2)NC(=O)[C@@H]2C[C@@H](O)CN2C(=O)[C@@H](n2cc([C@H]3CC[C@H](CN4CCC(c5ncc6c(n5)-n5c(nc(=O)c7c(Br)cccc75)C65CCCCC5)CC4)CC3)nn2)C(C)(C)C)cc1 [Compound A32, (2S,4R)-1-((S)-2-(4-((1r,4S)-4-((4-(4′-bromo-5′-oxo-5′H-spiro[cyclohexane-1,7′-pyrimido[5′,4′: 4,5]pyrrolo[1,2-a]quinazolin]-10′-yl)piperidin-1-yl)methyl)cyclohexyl)-1H-1,2,3-triazol-1-yl)-3,3-dimethylbutanoyl)-4-hydroxy-N—((R)-1-(4-(4-methylthiazol-5-yl)phenyl)-2-morpholinoethyl)pyrrolidine-2-carboxamide] |  |  |  |  | > 1000 nM | 70 to 90% | > 1000 nM | < 50% |  |
| Cc1ncsc1-c1ccc([C@H](Cn2cc([C@H]3CC[C@H](CN4CCC(c5ccc6c(c5)C5(CCCCC5)c5nc(=O)c7c(Br)cccc7n5-6)CC4)CC3)nn2)NC(=O)[C@@H]2C[C@@H](O)CN2C(=O)[C@@H](NC(=O)C2(F)CC2)C(C)(C)C)cc1 [Compound A33, (2S,4R)—N—((R)-2-(4-((1r,4R)-4-((4-(4′-bromo-5′-010-5′H-spiro[cyclohexane-1,7′-indolo[1,2-a]quinazolin]-9′-yl)piperidin-1-yl)methyl)cyclohexyl)-1H-1,2,3-triazol-1-yl)-1-(4-(4-methylthiazol-5-yl)phenyl)ethyl)-1-((S)-2-(1-fluorocyclopropane-1-carboxamido)-3,3-dimethylbutanoyl)-4-hydroxypyrrolidine-2-carboxamide] |  |  |  |  | 100 to 500 nM | 70 to 90% | < 100 nM | > 90% |  |
| Cc1ncsc1-c1ccc([C@H](Cn2cc([C@H]3CC[C@H](CN4CCC(c5ccc6c(n5)-n5c(nc(=O)c7c(Br)cccc75)C65CCCCC5)CC4)CC3)nn2)NC(=O)[C@@H]2C[C@@H](O)CN2C(=O)[C@@H](NC(=O)C2(F)CC2)C(C)(C)C)cc1 [Compound A34, (2S,4R)—N—((R)-2-(4-((1r,4R)-4-((4-(4′-bromo-5′-oxo-5′H-spiro[cyclohexane-1,7′-pyrido[3′,2′: 4,5]pyrrolo[1,2-a]quinazolin]-10′-yl)piperidin-1-yl)methyl)cyclohexyl)-1H-1,2,3-triazol-1-yl)-1-(4-(4-methylthiazol-5-yl)phenyl)ethyl)-1-((S)-2-(1-fluorocyclopropane-1-carboxamido)-3,3-dimethylbutanoyl)-4-hydroxypyrrolidine-2-carboxamide] |  |  |  |  | > 1000 nM | < 50% | 501 to 1000 nM | 50 to 69% |  |
